Format in all cases: cell-based
For experiment [1], the system named is S. aureus ATCC 29213. Briefly: Antimicrobial susceptibility test (MIC), micro-dilution broth. To be noted: S. aureus ATCC 29213. An excerpt: (§1) Bacterial strains. S. aureus ATCC 29213, E. coli MG1655, E. coli BAA-2340, E. coli BAA-2469, E. coli BAA-2471, E. cloacae BAA-2341, E. cloacae BAA-2468, K. pneumoniae BAA-1705, K. pneumoniae BAA-2342, K. pneumoniae BAA-2470, K. pneumoniae BAA-2472, and K. pneumoniae BAA-2473 were obtained from ATCC. E. coli JW5503 and E. coli JW3596 were obtained from the KEIO Collection. E. cloacae ATCC 29893 was provided by W. van der Donk (UIUC). E. coli AR-0346, E. coli AR-0349, E. coli AR-0493, E. coli AR-0495, and K. pneumoniae AR-0347 were obtained from the CDC and FDA AR Isolate Bank. E. coli F20987, E. coli M66623, E. cloacae S28901.1, K. pneumoniae M14723, K. pneumoniae M67198, K. pneumoniae M67297, K. pneumoniae S20595, K. pneumoniae S47889, A. baumannii W41979, A. baumannii F19521, A. baumannii M13100, and A. baumannii WO22 were obtained from the University of Illinois Chicago Medical School. A. baumannii KB304, A. baumannii KB343, and A. baumannii KB357 were provided by J. Quale.
(§2) Antimicrobial susceptibility tests. Susceptibility testing was performed in biological triplicate, using the micro-dilution broth method as outlined by the Clinical and Laboratory Standards Institute. Bacteria were cultured with cation-adjusted Muller-Hinton broth (Sigma-Aldrich, Cat# 90922) in round-bottom 96-well plates (Corning, Cat# 3788). Human serum (pooled gender, 0.2 μm filtered) was purchased from BioIVT (Hicksville, NY).
(Dilution methods test growth across graded concentrations, often in twofold steps.)

Experiment [2] deals with E. coli ΔtolC (JW5503). Particulars: efflux deficient E. coli ΔtolC. The method, then:
(§3) The compounds synthesized, shown in Table 1, were evaluated against Gram-positive and Gram-negative reference strains (S. aureus 29213 and E. coli MG1655, respectively), as well as an efflux deficient E. coli strain (ΔtolC, JW5503).
as §1, §2

In experiment [3] the test system is E. coli MG1655. Briefly: Antimicrobial susceptibility test (MIC). To be noted: E. coli MG1655.
Source text: as §1, §2

For experiment [4], the system named is K. pneumoniae BAA 2472. As to the kind of experiment: microbe, parasite or virus in culture. Particulars: clinical isolate. As to the method:
as §3, §1, §2

Experiment [5] has as its system A. baumannii AR 0033. Briefly: microbe, parasite or virus in culture. Particulars: clinical isolate. The method, then: as §2
Experiment [6] has as its system A. baumannii AR 0273. Briefly: microbe, parasite or virus in culture. Particulars: clinical isolate. As to the method:
as §2

Experiment [7] concerns A. baumannii AR 0299. As to the kind of experiment: microbe, parasite or virus in culture. To be noted: clinical isolate. As to the method:
as §2

Experiment [8] concerns A. baumannii AR 0313. As to the kind of experiment: microbe, parasite or virus in culture. Particulars: clinical isolate. The method, then: as §2
Experiment [9] relates to E. coli AR 0048. As to the kind of experiment: microbe, parasite or virus in culture. Particulars: clinical isolate. The method, then: as §2
Experiment [10] has as its system E. coli AR 0085. Briefly: microbe, parasite or virus in culture. Particulars: clinical isolate. As to the method: as §2
For experiment [11], the system named is K. pneumoniae AR 0066. As to the kind of experiment: microbe, parasite or virus in culture. Particulars: clinical isolate. As to the method: as §2
Experiment [12] deals with K. pneumoniae AR 0113. As to the kind of experiment: microbe, parasite or virus in culture. To be noted: clinical isolate. The method, then:
as §2

Experiment [13] relates to K. pneumoniae AR 0560. Briefly: microbe, parasite or virus in culture. To be noted: clinical isolate. The method, then:
as §2

The values that follow come from patent publication US20240190872A1, “FABI INHIBITORS FOR GRAM-NEGATIVE PATHOGENS” (THE BOARD OF TRUSTEES OF THE UNIVERSITY OF ILLINOIS, priority 2021, published 2024).

Converted amounts (≈) assume the structure as drawn.

On to `Cc1c(CN(C)C(=O)C=Cc2cnc3c(c2)CC2(CC(N)C2)C(=O)N3)oc2ccccc12` (mixture of isomers) [(±)-6], for which the “MIC S. aureus 29213” value in experiment [1] was found to be 0.016 µg/mL. The “MIC E. coli ΔtolC” value in [2] came out at 0.062 µg/mL. The “MIC E. coli MG1655” value in experiment [3] was 4 µg/mL. In addition, the “MIC K. pneumoniae BAA 2472” value in experiment [4] came out at 8 µg/mL. Also, in experiment [5], the “MIC A. baumannii AR 0033” value worked out at 16 µg/mL. For the same molecule, in experiment [6], the “MIC A. baumannii AR 0273” value is 16 µg/mL. For the same molecule, the “MIC A. baumannii AR 0299” value in [7] came to 16 µg/mL. In addition, the “MIC A. baumannii AR 0313” value in experiment [8] was 32 µg/mL. The “MIC E. coli AR 0048” value in [9] amounted to 16 µg/mL. Moreover, the “MIC E. coli AR 0085” value in experiment [10] amounted to 16 µg/mL. In addition, the “MIC K. pneumoniae AR 0066” value in [11] came out at 8 µg/mL. Also, the “MIC K. pneumoniae AR 0113” value in experiment [12] amounted to 16 µg/mL. Also, in experiment [13], the “MIC K. pneumoniae AR 0560” value turned out to be 8 µg/mL.
Consider `Cc1c(CN(C)C(=O)/C=C/c2ccc3c(c2)CCC(N)C(=O)N3)oc2ccccc12` (single isomer, unassigned) [Isomer 2], for which, in experiment [4], the “MIC K. pneumoniae BAA 2472” value is 4 µg/mL (≈ 9.91 µM). Besides, the “MIC A. baumannii AR 0033” value in experiment [5] was 2 µg/mL (≈ 4.96 µM). Also, the “MIC A. baumannii AR 0273” value in [6] came out at 4 µg/mL (≈ 9.91 µM). Also, the “MIC A. baumannii AR 0299” value in experiment [7] was 2 µg/mL (≈ 4.96 µM). The “MIC A. baumannii AR 0313” value in experiment [8] came to 4 µg/mL (≈ 9.91 µM). Moreover, the “MIC E. coli AR 0048” value in experiment [9] turned out to be 4 µg/mL (≈ 9.91 µM). Also, the “MIC E. coli AR 0085” value in [10] turned out to be 2 µg/mL (≈ 4.96 µM). Moreover, the “MIC K. pneumoniae AR 0066” value in experiment [11] was 4 µg/mL (≈ 9.91 µM). Further, the “MIC K. pneumoniae AR 0113” value in experiment [12] was 8 µg/mL (≈ 19.8 µM). Further, in experiment [13], the “MIC K. pneumoniae AR 0560” value worked out at 4 µg/mL (≈ 9.91 µM).
With `Cc1c(CN(C)C(=O)/C=C/c2cnc3c(c2)CCC(CN)C(=O)N3)oc2ccccc12` (racemic) [(±)-12], the “MIC S. aureus 29213” value in [1] was determined as 0.031 µg/mL (≈ 0.0741 µM). For the same molecule, the “MIC E. coli ΔtolC” value in [2] came to 0.125 µg/mL (≈ 0.299 µM). Also, the “MIC E. coli MG1655” value in [3] worked out at 8 µg/mL (≈ 19.1 µM). Also, the “MIC K. pneumoniae BAA 2472” value in [4] amounted to 32 µg/mL (≈ 76.5 µM). Further, the “MIC A. baumannii AR 0033” value in experiment [5] is 16 µg/mL (≈ 38.2 µM). For the same molecule, the “MIC A. baumannii AR 0273” value in experiment [6] turned out to be 32 µg/mL (≈ 76.5 µM). Further, the “MIC A. baumannii AR 0299” value in experiment [7] is 32 µg/mL (≈ 76.5 µM). In addition, in experiment [8], the “MIC A. baumannii AR 0313” value was above 32 µg/mL. Also, in experiment [9], the “MIC E. coli AR 0048” value came to 16 µg/mL (≈ 38.2 µM). Further, the “MIC E. coli AR 0085” value in [10] was determined as 8 µg/mL (≈ 19.1 µM). In addition, the “MIC K. pneumoniae AR 0066” value in experiment [11] was 32 µg/mL (≈ 76.5 µM). Also, the “MIC K. pneumoniae AR 0113” value in [12] was 32 µg/mL (≈ 76.5 µM). Moreover, the “MIC K. pneumoniae AR 0560” value in experiment [13] came to 16 µg/mL (≈ 38.2 µM).
Regarding `Cc1c(CN(C)C(=O)/C=C/c2cnc3c(c2)CCC(CN)C(=O)N3)oc2ccccc12` (centres unmarked), the “MIC K. pneumoniae BAA 2472” value in experiment [4] worked out at 32 µg/mL (≈ 76.5 µM). Further, the “MIC A. baumannii AR 0033” value in experiment [5] was 16 µg/mL (≈ 38.2 µM). In experiment [6], the “MIC A. baumannii AR 0273” value turned out to be 32 µg/mL (≈ 76.5 µM). Also, the “MIC A. baumannii AR 0299” value in experiment [7] was 32 µg/mL (≈ 76.5 µM). The “MIC A. baumannii AR 0313” value in experiment [8] is 32 µg/mL (≈ 76.5 µM). In [9], the “MIC E. coli AR 0048” value worked out at 16 µg/mL (≈ 38.2 µM). For the same molecule, the “MIC E. coli AR 0085” value in experiment [10] is 16 µg/mL (≈ 38.2 µM). For the same molecule, the “MIC K. pneumoniae AR 0066” value in experiment [11] turned out to be 32 µg/mL (≈ 76.5 µM). Also, the “MIC K. pneumoniae AR 0113” value in [12] was 32 µg/mL (≈ 76.5 µM). In experiment [13], the “MIC K. pneumoniae AR 0560” value is 16 µg/mL (≈ 38.2 µM).
For the molecule `Cc1c(CN(C)C(=O)/C=C/c2cnc3c(c2)CC2(CNC2)C(=O)N3)oc2ccccc12` [drawing 106], the “MIC K. pneumoniae BAA 2472” value in experiment [4] came out at 8 µg/mL (≈ 19.2 µM). Further, the “MIC A. baumannii AR 0033” value in [5] worked out at 8 µg/mL (≈ 19.2 µM). Also, in experiment [6], the “MIC A. baumannii AR 0273” value turned out to be 16 µg/mL (≈ 38.4 µM). Also, the “MIC A. baumannii AR 0299” value in experiment [7] was 16 µg/mL (≈ 38.4 µM). In addition, the “MIC A. baumannii AR 0313” value in experiment [8] was 16 µg/mL (≈ 38.4 µM). In experiment [9], the “MIC E. coli AR 0048” value worked out at 8 µg/mL (≈ 19.2 µM). Moreover, the “MIC E. coli AR 0085” value in experiment [10] was found to be 4 µg/mL (≈ 9.6 µM). The “MIC K. pneumoniae AR 0066” value in experiment [11] turned out to be 8 µg/mL (≈ 19.2 µM). In addition, the “MIC K. pneumoniae AR 0113” value in experiment [12] was determined as 16 µg/mL (≈ 38.4 µM). For the same molecule, in experiment [13], the “MIC K. pneumoniae AR 0560” value stood at 16 µg/mL (≈ 38.4 µM).
